This is an account of results in article PMC8426418 (Therapeutic drug monitoring, 2021).

For data set [1] the following is noted: for change in formation clearance (CLf) during pregnancy compared to postpartum: T2 or T3 vs matched postpartum; for CL renal: female, human, urine and plasma, oral, CLR (renal clearance); for CL renal / CLR (renal clearance): geometric mean [range].
The nature of data set [2]: Steady-state plasma concentrations of BUP and metabolites in pregnancy. The note with it: for Css (dose-normalized steady-state plasma concentration) / metabolite/BUP steady-state concentration ratio: geometric mean [range]; for steady-state concentration relative to BUP: pregnant women and postpartum.
Data set [3] is classed as in vivo, human. The conditions noted are these: at delivery, three subjects; for maternal plasma steady-state concentration / umbilical cord venous plasma steady-state concentration: mean±SE; for fetal to maternal ratio (umbilical cord venous plasma to maternal plasma concentration): steady-state.
The conditions of data set [4]: cited from earlier work.
[5] abbreviates: postpartum (PP) matched to T2, n=5.
The mark [6] stands for this setting: postpartum (PP) matched to T3, n=5.

Where “and” joins values, the source holds several entries; their conditions need not be identical. Equal entries are not always repeated. Where two headings read alike, the source gives them in different places.

As to `CC(NC(C)(C)C)C(=O)c1ccc(O)c(Cl)c1` (stereo not drawn) [4’OH-BUP, 4’-hydroxy-bupropion], the “change in formation clearance (CLf) during pregnancy compared to postpartum” value (shortened to “change in formation clearance”) in data set [1] is “no changes”.
On to `CC(NC(C)(C)C)C(=O)c1cccc(Cl)c1` (stereo not drawn) [BUP, Bupropion, reference compound], for which the “Css (dose-normalized steady-state plasma concentration)” value was 0.53 [0.11–1.3] μM/g in data set [2] (setting [5]); 0.41 [0.11–1.1] μM/g in data set [2] (setting [6]); 0.33 [0.08–1.2] μM/g in data set [2] (second trimester (T2), n=5); 0.44 [0.19–1.2] μM/g in data set [2] (third trimester (T3), n=5). In addition, the CL renal is 40 mL/min in data set [1] (second trimester (T2), n=5) and 30 mL/min in data set [1] (third trimester (T3), n=5). Besides, in data set [3], the “maternal plasma steady-state concentration” value is 0.5 ± 0.2 µM/g. Also, the “umbilical cord venous plasma steady-state concentration” value in data set [3] came out at 0.2 ± 0.1 µM/g.
In the case of `CC(NC(C)(C)C)C(O)c1cccc(Cl)c1` (stereo not drawn) [Erythro, erythrohydrobupropion], the “Css (dose-normalized steady-state plasma concentration)” value in data set [2] (setting [5]) is 0.67 [0.25–1.7] μM/g; in data set [2] (setting [6]) it was 0.80 [0.25–1.7] μM/g; in data set [2] (second trimester (T2), n=5) it was 0.49 [0.33–0.78] μM/g; in data set [2] (third trimester (T3), n=5), 0.63 [0.52–0.79] μM/g. Also, the “metabolite/BUP steady-state concentration ratio” value is 1.3 [0.5–3.2] in data set [2] (setting [5]); 1.9 [1.2–3.2] in data set [2] (setting [6]); 1.5 [0.4–4.2] in data set [2] (second trimester (T2), n=5); 1.4 [0.6–2.7] in data set [2] (third trimester (T3), n=5). The “steady-state concentration relative to BUP” value in data set [2] (this study) is given as “similar”. Moreover, the “plasma concentration exceeding BUP concentration” value in data set [4] is listed as 3–30 fold. Besides, in data set [1], the “change in formation clearance” value is given as “no changes”. The “CLR (renal clearance)” value in data set [1] (setting [5]) is 1.6 [0.36–9.7] L/h; in data set [1] (setting [6]), 1.9 [0.36–9.7] L/h; in data set [1] (second trimester (T2), n=5), 2.1 [0.91–4.4] L/h; in data set [1] (third trimester (T3), n=5), 1.2 [0.74–1.7] L/h. For the same compound, the “maternal plasma steady-state concentration” value in data set [3] was 0.5 ± 0.5 µM/g. In addition, in data set [3], the “umbilical cord venous plasma steady-state concentration” value worked out at 0.3 ± 0.3 µM/g.
Regarding `C[C@H]1NC(C)(C)CO[C@]1(O)c1cccc(Cl)c1` [OH-BUP, hydroxybupropion], the “Css (dose-normalized steady-state plasma concentration)” value in data set [2] (setting [5]) was 16.3 [4.9–39.6] μM/g; in data set [2] (setting [6]) it was 13.3 [4.9–39.6] μM/g; in data set [2] (second trimester (T2), n=5), 15.1 [10.6–18.7] μM/g; in data set [2] (third trimester (T3), n=5), 16.5 [6.3–30.9] μM/g. Moreover, in data set [2] (this study), the “steady-state concentration relative to BUP” value was 28–33 fold and 30 fold. The “plasma concentration exceeding BUP concentration” value in data set [4] was 3–30 fold. Further, the “steady-state concentration relative to racemic BUP” value in data set [4] (non-pregnant subjects) is 28 fold. Besides, in data set [1], the “change in formation clearance” value is given as “no changes”. In addition, the “CLR (renal clearance)” value is 0.10 [0.02–0.54] L/h in data set [1] (setting [5]); 0.10 [0.03–0.46] L/h in data set [1] (setting [6]); 0.20 [0.11–0.36] L/h in data set [1] (second trimester (T2), n=5); 0.08 [0.04–0.12] L/h in data set [1] (third trimester (T3), n=5).
Take `C[C@H]1NC(C)(C)CO[C@]1(O)c1cccc(Cl)c1` [R,R-OH-BUP]: the “Css (dose-normalized steady-state plasma concentration)” value in data set [2] (setting [5]) was 15.9 [5.5–35.7] μM/g; in data set [2] (setting [6]), 14.0 [5.5–35.7] μM/g; in data set [2] (second trimester (T2), n=5), 15.8 [10.0–22.2] μM/g; in data set [2] (third trimester (T3), n=5), 13.7 [5.9–21.2] μM/g. For the same compound, the “metabolite/BUP steady-state concentration ratio” value in data set [2] (setting [5]) is 32.5 [15.8–77.2]; in data set [2] (setting [6]) it was 35.6 [15.2–77.2]; in data set [2] (second trimester (T2), n=5), 43.8 [16.4–178.7]; in data set [2] (third trimester (T3), n=5), 33.7 [13.5–99.1]. Besides, in data set [2] (this study), the “R,R-OH-BUP steady-state concentration relative to S,S-OH-BUP” value is 14–20 fold. The “R,R-OH-BUP exposure relative to S,S-OH-BUP” value in data set [4] was “up to 65 fold”. Further, in data set [4] (non-pregnant subjects), the “R,R-OH-BUP concentration relative to S,S-OH-BUP” value is 40–65 fold. Moreover, the “CLR (renal clearance)” value in data set [1] (setting [5]) was 0.08 [0.02–0.45] L/h; in data set [1] (setting [6]) it was 0.09 [0.03–0.35] L/h; in data set [1] (second trimester (T2), n=5), 0.15 [0.07–0.32] L/h; in data set [1] (third trimester (T3), n=5), 0.07 [0.05–0.09] L/h. Also, the “fetal to maternal ratio (umbilical cord venous plasma to maternal plasma concentration)” value in data set [3] was determined as 0.4±0.1. In data set [3], the “maternal plasma steady-state concentration” value is 19.1 ± 12.0 µM/g. Further, in data set [3], the “umbilical cord venous plasma steady-state concentration” value is 6.4 ± 3.1 µM/g.
`C[C@@H](NC(C)(C)C)C(=O)c1cccc(Cl)c1` [R-BUP, R-bupropion, reference compound]: the “circulating concentration of R-BUP relative to S-BUP” value in data set [4] was 3- to 6 fold.
Take `C[C@@H]1NC(C)(C)CO[C@@]1(O)c1cccc(Cl)c1` [S,S-OH-BUP]: the “Css (dose-normalized steady-state plasma concentration)” value in data set [2] (setting [5]) is 0.78 [0.10–2.2] μM/g; in data set [2] (setting [6]) it was 0.64 [0.10–2.2] μM/g; in data set [2] (second trimester (T2), n=5) it was 0.73 [0.20–1.4] μM/g; in data set [2] (third trimester (T3), n=5), 0.83 [0.36–1.7] μM/g. Also, the “metabolite/BUP steady-state concentration ratio” value is 1.5 [0.7–5.9] in data set [2] (setting [5]); 1.6 [0.8–5.9] in data set [2] (setting [6]); 2.2 [1.0–6.0] in data set [2] (second trimester (T2), n=5); 1.9 [0.9–8.7] in data set [2] (third trimester (T3), n=5). In addition, the “CLR (renal clearance)” value is 0.35 [0.09–3.5] L/h in data set [1] (setting [5]); 0.47 [0.09–3.5] L/h in data set [1] (setting [6]); 0.93 [0.31–3.4] L/h in data set [1] (second trimester (T2), n=5); 0.40 [0.24–0.72] L/h in data set [1] (third trimester (T3), n=5). Further, in data set [3], the “maternal plasma steady-state concentration” value worked out at 0.8 ± 0.6 µM/g. For the same compound, in data set [3], the “umbilical cord venous plasma steady-state concentration” value was determined as 0.4 ± 0.2 µM/g.
For `C[C@H](NC(C)(C)C)[C@@H](O)c1cccc(Cl)c1` [Threo, threohydrobupropion], the “Css (dose-normalized steady-state plasma concentration)” value in data set [2] (setting [5]) was 4.1 [1.2–10.8] μM/g; in data set [2] (setting [6]), 4.7 [1.2–10.8] μM/g; in data set [2] (second trimester (T2), n=5) it was 3.4 [1.8–6.7] μM/g; in data set [2] (third trimester (T3), n=5), 4.9 [3.1–10.7] μM/g. For the same compound, the “metabolite/BUP steady-state concentration ratio” value in data set [2] (setting [5]) was 7.8 [3.5–17.6]; in data set [2] (setting [6]), 11.5 [9.7–17.6]; in data set [2] (second trimester (T2), n=5), 10.3 [4.8–23.1]; in data set [2] (third trimester (T3), n=5), 11.2 [5.6–16.6]. Besides, the “steady-state concentration relative to BUP” value in data set [2] (this study) is 8–10 fold and 10 fold. Besides, in data set [4], the “plasma concentration exceeding BUP concentration” value is listed as 3–30 fold. Further, in data set [4] (non-pregnant subjects), the “steady-state concentration relative to racemic BUP” value was 5 fold. Moreover, in data set [1], the “change in formation clearance” value was “no changes”. In addition, the “CLR (renal clearance)” value in data set [1] (setting [5]) was 2.4 [0.55–17.6] L/h; in data set [1] (setting [6]), 2.9 [0.59–17.6] L/h; in data set [1] (second trimester (T2), n=5) it was 3.9 [1.7–8.6] L/h; in data set [1] (third trimester (T3), n=5), 2.0 [1.1–2.8] L/h. In addition, in data set [3], the “fetal to maternal ratio (umbilical cord venous plasma to maternal plasma concentration)” value was determined as 0.7±0.1. Further, in data set [3], the “maternal plasma steady-state concentration” value came out at 4.9 ± 5.3 µM/g. Also, the “umbilical cord venous plasma steady-state concentration” value in data set [3] was 3.7 ± 4.3 µM/g.
